pIC50: −log10 of the molar value. Like-named read-outs stand apart in the source and are kept apart here.
Assays:
[1] = target: Recombinant human Bcl-2 protein (Homo sapiens (Human), UniProt P10415); test: Bcl-2 TR-FRET Assay; type: binding
Summary of the method: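 Displacement of FITC-labelled Bak peptide (0.5 nM) from 0.05 nM human Bcl-2, detected by TR-FRET with Tb-cryptate anti-6His antibody after 1 h at room temperature. Compounds, 10-point series, preincubated 0.5 h with protein in 20 mM potassium phosphate pH 7.5, 50 mM NaCl. IC50s fitted by four-parameter logistic.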

[2] = target: recombinant human Bcl-2-G101V protein (Homo sapiens (Human), UniProt P10415, G101V); test: Bcl-2-G101V TR-FRET Assay; type: binding; details: Bcl-2 G101V mutant, TR-FRET; read-out: Biochemical assay (IC50, nM) Bcl-2 G101V
Summary of the method: (§1)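 Ex337/em490 & 520 nm TR-FRET; % inhibition of Bcl-2-G101V–ligand interaction from 490:520 ratio vs. increasing compound conc.; IC50 by 4-parameter logistic fit.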

[3] = test system: recombinant human Bcl-2-G101V protein; test: Bcl-2-G101V TR-FRET Assay; type: binding; details: ratio of biochemical IC50 Bcl-2 G101V / Bcl-2 WT
Summary of the method: as §1

[4] = test system: RS4;11 (BCL-2 dependent acute lymphoblastic leukemia cell line); test: RS4;11 Cell Proliferation Assay; type: cell-based; details: Homo sapiens, RS4-11, RS4;11 cells, read-out: Cellular proliferation assay (IC50, nM) RS4
Summary of the method: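 Viability measured via CellTiter-Glo luminescence after a 48 h, 37 °C exposure to compounds (10 points, highest 1 μM). Seeding was 50,000 RS4;11 cells per well in 10% FBS RPMI-1640; IC50 given as mean.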

[5] = test system: BCL-2 G101V knock-in cell line H96 (derive from RS4;11); test: Bcl 2-G101V Knock-In RS4;11 Cell Proliferation Assay; type: cell-based; details: Homo sapiens, RS4;11 Bcl-2 G101V knock-in clone H96, 48 hrs, CellTiter-GLO, read-out: Cellular proliferation assay (IC50, nM) RS4
Summary of the method: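 CellTiter-Glo luminescence after 48 h, 37 °C compound treatment (10 concentrations, maximum 1 μM or 10 μM) gave mean IC50 values. Cells were 50,000 per well of H96, a BCL2-G101V knock-in single clone derived from RS4;11 by Cas9 editing.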

[6] = target: recombinant human Bcl-2 D103Y protein (Homo sapiens (Human), UniProt P10415, D103Y); test: Bcl-2-D103Y Biochemical Assay (TR-FRET); type: binding; details: for pIC50: TR-FRET, FITC labeled Bak peptide; for Ratio of Bcl-2 D103Y/Bcl-2 WT: ratio of IC50
Summary of the method: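 Compounds titrated against the Bcl-2 D103Y–ligand interaction; inhibition derived from the TR-FRET emission ratio 490 nm/520 nm after 337 nm excitation. Four-parameter logistic fitting gave IC50.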

[7] = Bcl-2 wild type, TR-FRET, read-out: Biochemical assay (IC50, nM) Bcl-2 WT
[8] = wild type Bcl-2, unit inferred, read-out: Bcl-2 WT

COc1cc(CN2CCN(C3CC4(C3)CN(c3ccc(C(=O)NS(=O)(=O)c5ccc(NC[C@H]6CC[C@](C)(O)CC6)c([N+](=O)[O-])c5)c(Oc5cnc6[nH]cc(F)c6c5)c3)C4)[C@H](c3ccccc3C(C)C)C2)cnc1OC [Example 205, 4-(6-((R)-4-((5,6-dimethoxypyridin-3-yl)methyl)-2-(2-isopropylphenyl)piperazin-1-yl)-2-azaspiro[3.3]heptan-2-yl)-2-((3-fluoro-1H-pyrrolo[2,3-b]pyridin-5-yl)oxy)-N-((4-((((1r,4r)-4-hydroxy-4-methylcyclohexyl)methyl)amino)-3-nitrophenyl)sulfonyl) benzamide]
IC50 [1, 7]: 0.034 nM | IC50 [1, 8]: 0.034 nM | IC50 [2]: 0.07 nM | Ratio of Bcl-2 G101V/WT [3]: 2 | IC50 [4]: 0.39 nM | IC50 [5]: 0.55 nM | pIC50 [6]: 10.33 | Ratio of Bcl-2 D103Y/Bcl-2 WT [6]: 1.4

COc1ccc(CN2CCN(C3CC4(C3)CN(c3ccc(C(=O)NS(=O)(=O)c5ccc(NC[C@H]6CC[C@](C)(O)CC6)c([N+](=O)[O-])c5)c(Oc5cnc6[nH]cc(F)c6c5)c3)C4)[C@H](c3ccccc3C(C)C)C2)cn1 [Example 215, 2-((3-fluoro-1H-pyrrolo[2,3-b]pyridin-5-yl)oxy)-N-((4-((((1r,4r)-4-hydroxy-4-methylcyclohexyl)methyl)amino)-3-nitrophenyl)sulfonyl)-4-(6-((R)-2-(2-isopropylphenyl)-4-((6-methoxypyridin-3-yl)methyl)piperazin-1-yl)-2-azaspiro[3.3]heptan-2-yl)benzamide]
IC50 [1, 7]: 0.057 nM | IC50 [1, 8]: 0.057 nM | IC50 [2]: 0.14 nM | Ratio of Bcl-2 G101V/WT [3]: 2.5 | IC50 [4]: 0.11 nM | IC50 [5]: 0.29 nM | pIC50 [6]: 10.21 | Ratio of Bcl-2 D103Y/Bcl-2 WT [6]: 1.1

COc1ccc(CN2CCN(C3CC4(CCN(c5ccc(C(=O)NS(=O)(=O)c6ccc(NC[C@H]7CC[C@](C)(O)CC7)c([N+](=O)[O-])c6)c(Oc6cnc7[nH]cc(F)c7c6)c5)CC4)C3)[C@H](c3ccccc3C(C)C)C2)cn1 [Example 217, 2-((3-fluoro-1H-pyrrolo[2,3-b]pyridin-5-yl)oxy)-N-((4-((((1r,4r)-4-hydroxy-4-methylcyclohexyl)methyl)amino)-3-nitrophenyl)sulfonyl)-4-(2-((R)-2-(2-isopropylphenyl)-4-((6-methoxypyridin-3-yl)methyl)piperazin-1-yl)-7-azaspiro[3.5]nonan-7-yl)benzamide]
IC50 [1, 7]: 0.074 nM | IC50 [1, 8]: 0.074 nM | IC50 [2]: 0.17 nM | Ratio of Bcl-2 G101V/WT [3]: 2.4 | IC50 [4]: 0.11 nM | IC50 [5]: 0.41 nM | pIC50 [6]: 10.00 | Ratio of Bcl-2 D103Y/Bcl-2 WT [6]: 1.4

[2H]C([2H])([2H])Oc1ccc(CN2CCN(C3CC4(C3)CN(c3ccc(C(=O)NS(=O)(=O)c5ccc(NC[C@H]6CC[C@](C)(O)CC6)c([N+](=O)[O-])c5)c(Oc5cnc6[nH]cc(F)c6c5)c3)C4)[C@H](c3ccccc3C(C)C)C2)cc1 [Example 218, 2-((3-fluoro-1H-pyrrolo[2,3-b]pyridin-5-yl)oxy)-N-((4-((((1r,4r)-4-hydroxy-4-methylcyclohexyl)methyl)amino)-3-nitrophenyl)sulfonyl)-4-(6-((R)-2-(2-isopropylphenyl)-4-(4-(methoxy-d3)benzyl)piperazin-1-yl)-2-azaspiro[3.3]heptan-2-yl) benzamide]
IC50 [1, 7]: 0.1 nM | IC50 [1, 8]: 0.1 nM | IC50 [2]: 0.25 nM | Ratio of Bcl-2 G101V/WT [3]: 2.5 | IC50 [4]: 0.12 nM | IC50 [5]: 0.29 nM | pIC50 [6]: 9.96 | Ratio of Bcl-2 D103Y/Bcl-2 WT [6]: 1.0

COc1ccc(CN2CCN(C3CC4(CCN(c5ccc(C(=O)NS(=O)(=O)c6ccc(NCC7(F)CCC(C)(O)CC7)c([N+](=O)[O-])c6)c(Oc6cnc7[nH]ccc7c6)c5)CC4)C3)[C@H](c3ccccc3C(C)C)C2)cc1 (stereo partly drawn) [Example 225, (R)-2-((1H-pyrrolo[2,3-b]pyridin-5-yl)oxy)-N-((4-(((1-fluoro-4-hydroxy-4-methylcyclohexyl)methyl)amino)-3-nitrophenyl)sulfonyl)-4-(2-(2-(2-isopropylphenyl)-4-(4-methoxybenzyl)piperazin-1-yl)-7-azaspiro[3.5]nonan-7-yl) benzamide]
IC50 [1, 7]: 0.092 nM | IC50 [1, 8]: 0.092 nM | IC50 [2]: 0.37 nM | Ratio of Bcl-2 G101V/WT [3]: 4 | IC50 [4]: 0.13 nM | IC50 [5]: 0.65 nM | pIC50 [6]: 10.00 | Ratio of Bcl-2 D103Y/Bcl-2 WT [6]: 1.1

CC(C)c1ccccc1[C@@H]1CN(Cc2ccc(F)c(F)c2)CCN1C1CC2(C1)CN(c1ccc(C(=O)NS(=O)(=O)c3ccc(NC[C@H]4CC[C@](C)(O)CC4)c([N+](=O)[O-])c3)c(Oc3cnc4[nH]cc(F)c4c3)c1)C2 [Example 229, 4-(6-((R)-4-(3,4-difluorobenzyl)-2-(2-isopropylphenyl)piperazin-1-yl)-2-azaspiro[3.3]heptan-2-yl)-2-((3-fluoro-1H-pyrrolo[2,3-b]pyridin-5-yl)oxy)-N-((4-((((1r,4r)-4-hydroxy-4-methylcyclohexyl)methyl)amino)-3-nitrophenyl)sulfonyl) benzamide]
IC50 [1, 7]: 0.38 nM | IC50 [1, 8]: 0.38 nM | IC50 [2]: 0.96 nM | Ratio of Bcl-2 G101V/WT [3]: 2.5 | IC50 [4]: 0.12 nM | IC50 [5]: 0.53 nM | pIC50 [6]: 9.35 | Ratio of Bcl-2 D103Y/Bcl-2 WT [6]: 1.2

COc1cc(CN2CCN(C3CC4(C3)CN(c3ccc(C(=O)NS(=O)(=O)c5ccc(NC[C@H]6CC[C@](C)(O)CC6)c([N+](=O)[O-])c5)c(Oc5cnc6[nH]cc(F)c6c5)c3)C4)[C@H](c3ccccc3C(C)C)C2)cc(C)c1OC [Example 231, 4-(6-((R)-4-(3,4-dimethoxy-5-methylbenzyl)-2-(2-isopropylphenyl)piperazin-1-yl)-2-azaspiro[3.3]heptan-2-yl)-2-((3-fluoro-1H-pyrrolo[2,3-b]pyridin-5-yl)oxy)-N-((4-((((1r,4r)-4-hydroxy-4-methylcyclohexyl)methyl)amino)-3-nitrophenyl)sulfonyl) benzamide]
IC50 [1, 7]: 0.27 nM | IC50 [1, 8]: 0.27 nM | IC50 [2]: 0.35 nM | Ratio of Bcl-2 G101V/WT [3]: 1.3 | IC50 [4]: 0.12 nM | IC50 [5]: 0.38 nM | pIC50 [6]: 9.35 | Ratio of Bcl-2 D103Y/Bcl-2 WT [6]: 1.7

COc1ccc(CN2CCN(C3CC4(CCN(c5ccc(C(=O)NS(=O)(=O)c6ccc(OCC7CCC(C)(O)CC7)c([N+](=O)[O-])c6)c(Oc6cnc7[nH]ccc7c6)c5)CC4)C3)[C@H](c3ccccc3C(C)C)C2)cc1 (stereo partly drawn) [Example 236, (R)-2-((1H-pyrrolo[2,3-b]pyridin-5-yl)oxy)-N-((4-((4-hydroxy-4-methylcyclohexyl)methoxy)-3-nitrophenyl)sulfonyl)-4-(2-(2-(2-isopropylphenyl)-4-(4-methoxybenzyl)piperazin-1-yl)-7-azaspiro[3.5]nonan-7-yl)benzamide]
IC50 [1, 7]: 0.16 nM | IC50 [1, 8]: 0.16 nM | IC50 [2]: 0.56 nM | Ratio of Bcl-2 G101V/WT [3]: 3.5 | IC50 [4]: 0.16 nM | IC50 [5]: 0.8 nM | pIC50 [6]: 9.66 | Ratio of Bcl-2 D103Y/Bcl-2 WT [6]: 1.3

COc1cc(CN2CCN(C3CC4(CCN(c5ccc(C(=O)NS(=O)(=O)c6ccc(NC[C@H]7CC[C@](C)(O)CC7)c([N+](=O)[O-])c6)c(Oc6cnc7[nH]ccc7c6)c5)CC4)C3)[C@H](c3ccccc3C(C)C)C2)cc2c1OCC2 [Example 239, 2-((1H-pyrrolo[2,3-b]pyridin-5-yl)oxy)-N-((4-((((1r,4r)-4-hydroxy-4-methylcyclohexyl)methyl)amino)-3-nitrophenyl)sulfonyl)-4-(2-((R)-2-(2-isopropylphenyl)-4-((7-methoxy-2,3-dihydrobenzofuran-5-yl)methyl)piperazin-1-yl)-7-azaspiro[3.5]nonan-7-yl)benzamide]
IC50 [1, 7]: 0.076 nM | IC50 [1, 8]: 0.076 nM | IC50 [2]: 0.2 nM | Ratio of Bcl-2 G101V/WT [3]: 2.6 | IC50 [4]: 0.12 nM | IC50 [5]: 0.29 nM | pIC50 [6]: 9.92 | Ratio of Bcl-2 D103Y/Bcl-2 WT [6]: 1.5

Source: patent US20240376097A1, “BCL-2 Inhibitor” (BeiGene Ltd., priority 2020, published 2024)
